Patent US6548543B1, “Remedies or preventives containing cyclopentenone compounds as the active ingredient” (Takara Shuzo Co., Ltd., priority 1998, dated 2003)

Columns and labels:
[1] = test system: adhesion between vascular endothelial cells and HL-60 cells; experiment: Adhesion of HL-60 cells to TNF-α-stimulated vascular endothelial cells; type: cell-based, Human; conditions: for Adhesion rate: TNF-α-stimulated endothelial cells; for Suppression of TNF-α-induced increase in adhesion rate (statement): 10^−7 to 10^−4 M, dose-dependent
Description: Human vascular endothelial cells (sold by Sanko Junyaku) suspended in RPMI-1640 medium (Gibco) containing 10% FCS (HyClone) at a concentration of 1×10^5 cells/ml. 100 μl/well of the suspension was seeded into a 96-well microtiter plate.
100 U/ml of human recombinant TNF-α (Promega) was added to monolayer of vascular endothelial cells after incubation at 37° C. for 2 days in a 5% CO2 incubator. The plate was incubated 37° C. for 6 hours in a 5% CO2 incubator to prepare vascular endothelial cells stimulated with TNF-α.
On the other hand, cyclopentenone, GM or dipropionylcyclopentenone at a varying concentration was added to HL-60 cells suspended in RPMI-1640 medium containing 10% FCS at a concentration of 1×10^6 cells/ml. The cells were cultured at 37° C. for 3 hours in a 5% CO2 incubator. After cultivation, 5 μM of 5(-and-6)-carboxyfluorescein diacetate, succinimide ester (Molecular Probe) as a fluorescent agent was added thereto and reacted at 37° C. for 10 minutes. The cells were washed twice with RPMI-1640 medium and suspended in RPMI-1640 medium containing 10% FCS to prepare a suspension of fluorescence-labeled HL-60 cells at a concentration of 1×10^6 cells/ml.
100 μl/well of the fluorescence-labeled HL-60 cells were overlaid onto the vascular endothelial cells stimulated with TNF-α. Cyclopentenone, GM or dipropionylcyclopentenone at a varying concentration was added thereto. The plate was incubated at 37° C. for 20 minutes in a 5% CO2 incubator for adhesion reaction between vascular endothelial cells and HL-60 cells.
After the adhesion reaction, the plate was washed to remove non-adhesive cells. 1% Triton X (Nacalai Tesque) was added thereto to destroy adhesive cells. The fluorescence intensity was measured using filters for 485/22 nm (excitation) and 530/25 nm (emission).
The adhesion rate which represents the ratio of cells adhered to vascular endothelial cells was determined defining the fluorescence intensity for 1×10^5 fluorescence-labeled cells as 100%.

[2] = test system: spleen lymphocytes stimulated with Ehrlich ascites carcinoma cells; experiment: Cancer cell-specific proliferation of spleen lymphocytes from treated tumor-bearing mice; type: in vivo, ddY mice; conditions: for Growth of spleen lymphocytes on stimulation with cancer cells (statement): mice administered intraperitoneally
Description: ddY mice (female, 7 weeks old) were purchased from Japan SLC and pre-bred 1 week before using in experiments.
1×10^6 Ehrlich ascites carcinoma cells were intraperitoneally inoculated to each mouse. 10 mg/kg of cyclopentene, 30 mg/kg of GM or 10 mg/kg of dipropionylcyclopentene was intraperitoneally administered to the mouse on the day after the inoculation. Saline was administered to a control mouse.
(§1) A spleen was taken out from the mouse 10 days after the inoculation with cancer cells, finely minced and suspended in RPMI-1640 medium (Gibco) containing 10% FCS (HyClone) to obtain a single cell suspension. Adhesive cells in the cell suspension adhered to a plastic Petri dish were removed and non-adhesive cells were used as spleen lymphocytes.
The spleen lymphocytes were suspended in RPMI-1640 medium containing 10% FCS at a concentration of 2×10^6/ml. 100 μl/well of the suspension was seeded into a microtiter plate.
Stimulated cells were prepared as follows. Mitomycin C (Kyowa Hakko Kogyo) was added to a concentration of 50 μg/ml to Ehrlich ascites carcinoma cells suspended in RPMI-1640 medium at a concentration of 2×10^6 cells/ml. The cells were treated at 37° C. for 30 minutes, washed twice and then suspended in RPMI-1640 medium containing 10% FCS to prepare stimulated cells at a concentration of 2×10^6 cells/ml. 100 μl of the thus prepared stimulated cells was overlaid onto each well of the plate into which 100 μl/well of the spleen lymphocytes had been added. The plate was incubated at 37° C. for 5 days in a 5% CO2 incubator. 37 kBq of ^3H-thymidine (Daiichi Pure Chemicals) was added to the well to pulse-label the cells on the day before the completion of the cultivation. After cultivation, the cells were harvested on a glass filter to measure the radioactivity.

[3] = test system: NK cells; type: in vivo, ddY mice; conditions: mice administered intraperitoneally
Description: ddY mice (female, 7 weeks old) were purchased from Japan SLC and pre-bred for 1 week before using in experiments.
1×10^6 Ehrlich ascites carcinoma cells were intraperitoneally inoculated to each mouse. 10 mg/kg of cyclopentenone, 30 mg/kg of GM or 10 mg/kg of dipropionylcyclopentenone was intraperitoneally administered to the mouse on the day after the inoculation. Saline was administered to a control mouse.
as §1, with “medium” for “medium (Gibco)”, “cells” for “cells in the cell suspension”, “removed from the cell suspension” for “removed”, “NK cells.” for “spleen lymphocytes.”
The NK cells were suspended in RPMI-1640 medium containing 10% FCS at a concentration of 6×10^6/ml. 100 μl/well of the suspension was seeded into a microtiter plate.
Target cells were prepared as follows. 3700 kBq of ^51Cr (Amersham) was added to 1×10^6 YAC-1 cells (Dainippon Pharmaceutical). The cells were cultured at 37° C. for 1 hour for labeling. The labeled cells were washed twice and then suspended in RPMI-1640 medium containing 10% FCS at a concentration of 2×10^5 cells/ml. […] The radioactivity (experimental value) was measured using an auto gamma counter.
100 μl of the culture medium was added to the reaction system in place of the NK cells and the radioactivity was measured in order to measure the radioactivity spontaneously released from the target cells (control value).
Furthermore, the radioactivity released into the supernatant when 1% Triton (Nacalai Tesque) was added to the reaction system to lyse the 51Cr-labeled YAC-1 cells was measured in order to measure the total radioactivity contained in the reaction system (total radioactivity value).
The cytotoxicity (%) specifically mediated by the NK cells can be determined according to the following equation.
Cytotoxicity (%)=[(experimental value−control value)/(total radioactivity value−control value)]×100

[4] = test system: HL-60 (ATCC CCL-240) cells; experiment: Viability and apoptosis of HL-60 cells (Trypan Blue, optical microscope); type: cell-based; conditions: Homo sapiens, 24 hours, Trypan Blue, read-out: Viability50 (concentration that results in a viability of 50%)
Description: HL-60 (ATCC CCL-240) cells were cultured at 37° C. in RPMI 1640 medium (Bio Whittaker) containing 10% fetal calf serum (FCS; JRH) which had been treated at 56° C. for 30 minutes and suspended in RPMI 1640 medium at a concentration of 2.5×10^5 cells/5 ml.
10 μl each of solutions of diisobutyrylcyclopentenone, dimethoxyacetylcyclopentenone, dimethylfumarylcyclopentenone or dimethylmaleylcyclopentenone in 70% ethanol in water diluted to varying concentrations was added to 5 ml of the suspension. The mixtures were incubated at 37° C. for 24 hours in the presence of 5% Co2. 10 μl of aqueous actinomycin D (Sigma) solution (0.5 mg/ml), which is known as a reagent that induces apoptosis, was used in place of the sample and the mixture was incubated under the same conditions for confirmation.
The cultured cells were examined under an optical microscope.
Furthermore, a portion of the cells cultured as described above was stained with 0.4% Trypan Blue and examined under an optical microscope. The number of viable cells which were not stained and the number of dead cells which were stained blue were counted. The concentration of each of the samples that results in a viability of 50% (Viability50 μM) was determined.

[5] = target: T1, topoisomerase II (Homo sapiens, UniProt P11388); experiment: Topoisomerase II inhibition, pBR322 DNA relaxation; type: biochemical; conditions: 37° C., 30 minutes
T1 construct: purchased TopoGEN
T1 sequence (P11388 whole entry): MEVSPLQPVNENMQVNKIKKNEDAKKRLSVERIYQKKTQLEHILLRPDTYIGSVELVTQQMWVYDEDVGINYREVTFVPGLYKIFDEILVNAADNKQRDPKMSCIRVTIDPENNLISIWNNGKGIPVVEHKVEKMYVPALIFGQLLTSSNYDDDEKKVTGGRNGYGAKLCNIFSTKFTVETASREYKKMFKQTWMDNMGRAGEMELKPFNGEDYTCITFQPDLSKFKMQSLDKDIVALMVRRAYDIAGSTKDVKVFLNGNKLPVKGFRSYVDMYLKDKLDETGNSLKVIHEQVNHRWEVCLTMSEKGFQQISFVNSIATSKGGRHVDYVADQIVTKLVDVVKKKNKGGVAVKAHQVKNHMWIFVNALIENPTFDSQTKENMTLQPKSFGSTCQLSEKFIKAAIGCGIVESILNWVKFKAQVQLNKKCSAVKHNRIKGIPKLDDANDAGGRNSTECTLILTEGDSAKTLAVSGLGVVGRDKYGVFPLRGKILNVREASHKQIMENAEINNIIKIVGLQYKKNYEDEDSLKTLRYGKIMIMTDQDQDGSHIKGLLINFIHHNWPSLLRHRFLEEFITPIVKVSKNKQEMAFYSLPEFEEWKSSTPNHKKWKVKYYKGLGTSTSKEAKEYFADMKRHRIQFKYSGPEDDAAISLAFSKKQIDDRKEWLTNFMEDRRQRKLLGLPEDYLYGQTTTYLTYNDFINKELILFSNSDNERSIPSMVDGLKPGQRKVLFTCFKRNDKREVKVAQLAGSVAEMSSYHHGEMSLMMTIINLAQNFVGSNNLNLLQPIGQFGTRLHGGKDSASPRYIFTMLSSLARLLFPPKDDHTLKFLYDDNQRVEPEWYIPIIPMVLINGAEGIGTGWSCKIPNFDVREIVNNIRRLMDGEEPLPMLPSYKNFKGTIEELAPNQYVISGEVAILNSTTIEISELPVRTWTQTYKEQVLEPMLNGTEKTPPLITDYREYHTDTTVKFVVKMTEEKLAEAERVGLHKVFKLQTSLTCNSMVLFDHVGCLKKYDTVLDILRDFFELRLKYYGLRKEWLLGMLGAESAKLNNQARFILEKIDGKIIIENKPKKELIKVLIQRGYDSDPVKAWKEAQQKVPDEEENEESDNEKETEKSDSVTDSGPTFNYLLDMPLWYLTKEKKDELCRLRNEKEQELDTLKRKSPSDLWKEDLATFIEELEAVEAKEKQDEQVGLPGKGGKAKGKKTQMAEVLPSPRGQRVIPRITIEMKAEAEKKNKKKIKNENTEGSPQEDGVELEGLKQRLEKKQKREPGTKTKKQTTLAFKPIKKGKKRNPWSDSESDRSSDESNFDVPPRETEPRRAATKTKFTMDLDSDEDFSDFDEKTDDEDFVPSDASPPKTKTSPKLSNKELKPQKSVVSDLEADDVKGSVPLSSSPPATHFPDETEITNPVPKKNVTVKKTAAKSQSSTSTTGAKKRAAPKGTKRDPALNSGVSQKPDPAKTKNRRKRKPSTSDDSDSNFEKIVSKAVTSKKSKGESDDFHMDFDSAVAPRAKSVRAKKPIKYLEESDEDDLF
Description: (1) 2 μl of topoisomerase II (TopoGEN; 2 units/μl), 2 μl of 10-fold concentrated buffer [0.5 M Tris-HCl (pH 8.0), 1.2 M KCl, 0.1 M MgCl2, 2.5 mM adenosine triphosphate, 5 mM dithiothreitol], 2 μl of 0.1% bovine serum albumin (Takara Shuzo), 11 μl of distilled water and 2 μl of distilled water (control) or 2 μl of one of aqueous solutions of dipropionylcyclopentenone, diisobutyrylcyclopentenone, dibenzoylcyclopentenone, dihexanoylcyclopentenone, di-2-hexenoylcyclopentenone, dimethoxyacetylcyclopentenone, dimethylfumarylcyclopentenone or dimethylmaleylcyclopentenone at varying concentrations were mixed together. 1 μl of 0.25 μg/μl pBR322 DNA (Takara Shuzo) was added thereto. The resulting mixture was reacted at 37° C. After reacting for 30 minutes, 2 μl of an aqueous solution containing 1% sodium dodecyl sulfate, 50% glycerol and 0.02% Bromophenol Blue was added thereto to stop the reaction.
20 μl of the reaction mixture was applied to 1% agarose gel prepared using agarose L03 (Takara Shuzo) and TAE buffer [40 mM Tris, 5 mM sodium acetate, 1 mm ethylenediaminetetraacetic acid disodium salt (EDTA); adjusted to pH 7.8 using acetic acid] and electrophoresed in TAE buffer. After electrophoresis, the gel was soaked in a 1 μg/ml aqueous ethidium bromide solution. The gel was exposed to ultraviolet rays to visualize the electophoretic pattern of DNA.

SMILES | Adhesion rate ([1]; 0.1 μM) [%] | Adhesion rate ([1]; 1 μM) [%] | Adhesion rate ([1]; 10 μM) [%] | Adhesion rate ([1]; 100 μM) [%] | Suppression of TNF-α-induced increase in adhesion rate (statement) [1] | 3H-thymidine uptake ([2]; 10 mg/kg intraperitoneal, no stimulation with cancer cell) [CPM] | 3H-thymidine uptake ([2]; 10 mg/kg intraperitoneal, stimulation with cancer cell) [CPM] | Growth of spleen lymphocytes on stimulation with cancer cells (statement) [2] | Activation of NK cells (statement) [3] | IC50 [4] [µM] | Concentration at which change of DNA from superhelical type to relaxed type was partially or completely inhibited [5] [µM] | 3H-thymidine uptake ([2]; 30 mg/kg intraperitoneal, no stimulation with cancer cell) [CPM] | 3H-thymidine uptake ([2]; 30 mg/kg intraperitoneal, stimulation with cancer cell) [CPM]
O=C1C=CC(O)C1O (centres unmarked) [Cyclopentenone, 4,5-dihydroxy-2-cyclopenten-1-one] | 51.7 | 46.0 | 22.2 | 17.9 | suppressed | 9680 | 25756 | significantly enhanced | Activation of NK cells was observed |  |  |  | 
COC(=O)/C=C\C(=O)OC1C=CC(=O)C1OC(=O)CCC(=O)OC (centres unmarked) [Dimethylmaleylcyclopentenone, dimethylmaleylcyclopentenone] |  |  |  |  |  |  |  |  |  | 3.4 | ≥ 5 |  | 
N[C@@H](CCC(=O)N[C@@H](CSC1C=C(O)C(=O)C1)C(=O)NCC(=O)O)C(=O)O (some centres unmarked) [GM, 2-hydroxy-4-glutathion-S-yl-2-cyclopenten-1-one] | 53.9 | 48.3 | 23.9 | 16.3 | suppressed |  |  | significantly enhanced | Activation of NK cells was observed |  |  | 8700 | 36291
